Results as given in PubChem BioAssay (NCI).
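Method: 48-hour compound exposure of cells in 96-well plates, five concentrations, linear interpolation of endpoints. Here, GI50 denotes the concentration required for 50% inhibition of growth. TGI marks complete inhibition of growth.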

What was measured:
Assay in all cases: NCI-60 cell line screen, 48 h
[1] = system: HCC-2998 colon
[2] = system: SW-620 colon
[3] = system: OVCAR-5 ovarian
[4] = system: K-562 leukemia
[5] = system: OVCAR-8 ovarian
[6] = system: SNB-75 CNS
[7] = system: HS 578T breast
[8] = system: HCT-15 colon
[9] = system: SF-539 CNS
[10] = system: SF-268 CNS
[11] = system: SK-MEL-2 melanoma
[12] = system: MALME-3M melanoma
[13] = system: ACHN renal
[14] = system: SN12C renal
[15] = system: MOLT-4 leukemia
[16] = system: SK-MEL-28 melanoma
[17] = system: HCT-116 colon
[18] = system: CAKI-1 renal
[19] = system: DU-145 prostate
[20] = system: SR leukemia
[21] = system: RPMI-8226 leukemia
[22] = system: HOP-92 NSCLC
[23] = system: NCI/ADR-RES ovarian
[24] = system: KM12 colon
[25] = system: UACC-62 melanoma
[26] = system: BT-549 breast
[27] = system: U251 CNS
[28] = system: CCRF-CEM leukemia
[29] = system: COLO 205 colon
[30] = system: NCI-H460 lung
[31] = system: NCI-H522 lung
[32] = system: SK-MEL-5 melanoma
[33] = system: T-47D breast
[34] = system: HL-60(TB) leukemia
[35] = system: HT29 colon
[36] = system: NCI-H226 lung
[37] = system: EKVX NSCLC
[38] = system: M14 melanoma
[39] = system: UACC-257 melanoma
[40] = system: MDA-MB-435
[41] = system: MCF7 breast
[42] = system: SK-OV-3 ovarian
[43] = system: OVCAR-4 ovarian
[44] = system: PC-3 prostate
[45] = system: MDA-MB-231 breast
[46] = system: NCI-H23 lung
[47] = system: TK-10 renal
[48] = system: HOP-62 NSCLC
[49] = system: IGROV1 ovarian
[50] = system: 786-0 renal
[51] = system: SNB-19 CNS
[52] = system: UO-31 renal
[53] = system: RXF 393 renal
[54] = system: A498 renal
[55] = system: A549 NSCLC
[56] = system: SF-295 CNS

`O=c1oc2ccc(-c3ccc(F)cc3F)cc2c(=O)n1-c1ccc(F)c(F)c1` was tested, and the GI50 [1] was 1700 nM, the TGI [1] was 48700 nM and the GI50 [2] was 1770 nM. The TGI [2] was > 50000 nM, the GI50 [3] was 1620 nM and the TGI [3] was > 50000 nM. The GI50 [4] was 1160 nM, the TGI [4] was > 50000 nM and the GI50 [5] was 1620 nM. The TGI [5] was > 50000 nM, the GI50 [6] was 775 nM and the TGI [6] was 2540 nM. For the same molecule, the GI50 [7] was 1570 nM, the TGI [7] was > 50000 nM and the GI50 [8] was 1340 nM. For the same molecule, the TGI [8] was 5240 nM, the GI50 [9] was 1690 nM and the TGI [9] was 13800 nM. The GI50 [10] was 1380 nM, the TGI [10] was > 50000 nM and the GI50 [11] was 797 nM. It also gave a TGI [11] of 3070 nM, a GI50 [12] of 874 nM and a TGI [12] of 2510 nM. It also gave a GI50 [13] of 1410 nM, a TGI [13] of 4880 nM and a GI50 [14] of 1030 nM. It also gave a TGI [14] of 4290 nM, a GI50 [15] of 1480 nM and a TGI [15] of 6730 nM. It also gave a GI50 [16] of 1190 nM, a TGI [16] of 8200 nM and a GI50 [17] of 1260 nM. The TGI [17] was 5430 nM, the GI50 [18] was 963 nM and the TGI [18] was 3210 nM. The GI50 [19] was 1750 nM, the TGI [19] was > 50000 nM and the GI50 [20] was 1870 nM. The TGI [20] was > 50000 nM, the GI50 [21] was 589 nM and the TGI [21] was 2400 nM. The GI50 [22] was 389 nM, the TGI [22] was 2280 nM and the GI50 [23] was 1320 nM. For the same molecule, the TGI [23] was > 50000 nM, the GI50 [24] was 1560 nM and the TGI [24] was 5260 nM. It also gave a GI50 [25] of 519 nM, a TGI [25] of 1670 nM and a GI50 [26] of 1350 nM. For the same molecule, the TGI [26] was 4900 nM, the GI50 [27] was 1530 nM and the TGI [27] was > 50000 nM. The GI50 [28] was 1470 nM, the TGI [28] was > 50000 nM and the GI50 [29] was 8250 nM. For the same molecule, the TGI [29] was 27100 nM, the GI50 [30] was 1320 nM and the TGI [30] was > 50000 nM. For the same molecule, the GI50 [31] was 666 nM, the TGI [31] was 8620 nM and the GI50 [32] was 562 nM. For the same molecule, the TGI [32] was 1440 nM, the GI50 [33] was 418 nM and the TGI [33] was 3640 nM. It also gave a GI50 [34] of 1060 nM, a TGI [34] of 3070 nM and a GI50 [35] of 8900 nM. The TGI [35] was > 50000 nM, the GI50 [36] was 1410 nM and the TGI [36] was 6240 nM. The GI50 [37] was 1460 nM, the TGI [37] was 7350 nM and the GI50 [38] was 1610 nM. For the same molecule, the TGI [38] was 35500 nM, the GI50 [39] was 730 nM and the TGI [39] was 4040 nM. It also gave a GI50 [40] of 1280 nM, a TGI [40] of 5460 nM and a GI50 [41] of 1220 nM. The TGI [41] was > 50000 nM, the GI50 [42] was 1270 nM and the TGI [42] was > 50000 nM. For the same molecule, the GI50 [43] was 1350 nM, the TGI [43] was > 50000 nM and the GI50 [44] was 1420 nM. For the same molecule, the TGI [44] was > 50000 nM, the GI50 [45] was 894 nM and the TGI [45] was 2340 nM. The GI50 [46] was 936 nM, the TGI [46] was 2970 nM and the GI50 [47] was 1610 nM. The TGI [47] was 16900 nM, the GI50 [48] was 1410 nM and the TGI [48] was 5940 nM. The GI50 [49] was 1700 nM, the TGI [49] was > 50000 nM and the GI50 [50] was 1670 nM. The TGI [50] was > 50000 nM, the GI50 [51] was 1610 nM and the TGI [51] was > 50000 nM. It also gave a GI50 [52] of 1100 nM, a TGI [52] of 4670 nM and a GI50 [53] of 1270 nM. The TGI [53] was 4020 nM, the GI50 [54] was 374 nM and the TGI [54] was 1700 nM. The GI50 [55] was 1580 nM, the TGI [55] was > 50000 nM and the GI50 [56] was 1150 nM. The TGI [56] was 3210 nM.
